From patent publication US20240261234A1, “USE OF C[…] THE TREATMENT OF NOCTURNAL SNORING” (GW Research Limited, priority 2014, published 2024)
“And” between values parts separate entries of the source, which are not always exact repeats. Equal entries are not always repeated. “Also recorded” adds a separate entry of the source.

Experiments:
apnea hypopnea index = settings: short term; small trial; cited from earlier work
[1] = tested on: seizures in treatment-resistant epilepsy characterised by Doose Syndrome; assay: Expanded access compassionate use program: seizure frequency with CBD therapy in Doose Syndrome; format: in vivo, children and young adults
Method: (§1) Of 137 children and young adults with severe, childhood onset treatment-resistant epilepsy (TRE), six suffered from Doose Syndrome. These subjects were tested with a highly purified extract of cannabidiol (CBD) obtained from a cannabis plant. The participants in the study were part of an expanded access compassionate use program for CBD.
(§2) All of these patients with a diagnosis of Doose Syndrome presented with multiple seizure types which included tonic-clonic seizures; myoclonic seizures; atonic seizures; absence seizures; myoclonic-absence seizures; and tonic seizures. In addition nocturnal snoring was encountered by one of the patients in the study.
Both patients entered a baseline period of 4 weeks when parents/caregivers kept prospective seizure diaries, noting all countable motor seizure types.
(§3) The patients then received a highly purified CBD extract (greater than 98% CBD w/w) in sesame oil, of known and constant composition, at a dose of 5 mg/kg/day in addition to their baseline anti-epileptic drug (AED) regimen.
Laboratory testing for hematologic, liver, kidney function, and concomitant AED levels was performed at baseline, and after CBD therapy.
All patients were taking at least two concomitant anti-epileptic drugs. These included clobazam; diazepam; lacosamide; lamotrigine; levetiracetam; lorazepam; nordiazepam; n-desmethylclobazam; phenytoin; valproic acid; zonisamide. The average number of concomitant antiepileptic drugs being taken was 2.7. The majority took either clobazam and/or valproic acid.
There were 6 children and young adult patients who received at least 3 months of treatment all of whom suffered from treatment-resistant epilepsy which is characterised by Doose Syndrome.
The change from baseline in the number of different seizures and total number of seizures after 16 weeks treatment are summarized in Table 4 below.

[2] = tested on: nocturnal snoring in a patient with Doose Syndrome; assay: Expanded access compassionate use program: nocturnal snoring with CBD therapy; format: in vivo, children and young adults
Method: as §1, §2, §3
Table 5 below describes the data that was collated for the other seizure types including nocturnal snoring.

[3] = Solubility of the drug substance in water; format: physicochemical
Description: The drug substance, CBD is insoluble in water. Sesame oil was selected as an excipient to solubilize the drug substance.

[4] = absence seizures (n = 3), Doose Syndrome patients
[5] = atonic seizures (n = 2), Doose Syndrome patients
[6] = tonic-clonic seizures (n = 5), Doose Syndrome patients
[7] = nocturnal snoring (n = 1), Doose Syndrome patient

CCCCCc1cc(O)c2c(c1)OC(C)(C)[C@@H]1CCC(C)=C[C@@H]21 [dronabinol, Tetrahydro- cannabinol]
Effect on apnea hypopnea index (apnea hypopnea index): able to reduce the apnea hypopnea index

C=C(C)[C@@H]1CCC(C)=C[C@H]1c1c(O)cc(CCCCC)cc1O [CBD, Cannabidiol]
Patients with <50% reduction in absence seizures [1, 4]: 0%
Patients with >50% reduction in absence seizures [1, 4]: 100%
Number of Doose syndrome patients with a decrease in total seizure frequency ([1]; after 3 months of therapy, of 6 patients): five
Patients with <50% reduction in atonic seizures [1, 5]: 50%
Patients with >50% reduction in atonic seizures [1, 5]: 50%
Effect on seizure sub-types associated with Doose Syndrome (in words) ([1]; patients not responding well to existing AED): very effective treatment for all of the seizure sub-types; also recorded: significantly reduces the number of seizures
Change in baseline (%) in total seizure frequency ([1]; per subject (subjects 1-6, Doose Syndrome), after 16 weeks treatment, CBD 5 up to 25 mg/kg/day added to baseline AED): −100.0% (2×) and 65.8% and −67.4% and −68.7% and −92.0%
>50% reduction in seizures (total seizures) ([1]; per subject (subjects 1-6, Doose Syndrome), after 16 weeks treatment, Yes/No): Yes (5×) and No
Patients with <50% reduction in tonic-clonic seizures [1, 6]: 20%
Patients with >50% reduction in tonic-clonic seizures [1, 6]: 80%
Effect on occurrence of nocturnal snoring (in words) ([2]; a child with Doose Syndrome): completely eliminate the occurrence of nocturnal snoring
Patients with <50% reduction in nocturnal snoring [2, 7]: 0%
Patients with >50% reduction in nocturnal snoring [2, 7]: 100%
Solubility in water [3]: insoluble
